Consider 9 compounds from paper PMC2818678 (Bioorganic & medicinal chemistry, 2009).

The target in experiment [1] is T1, human A1 adenosine receptor (hA1AR) (Homo sapiens, UniProt P30542).
T1 sequence (P30542 1-326): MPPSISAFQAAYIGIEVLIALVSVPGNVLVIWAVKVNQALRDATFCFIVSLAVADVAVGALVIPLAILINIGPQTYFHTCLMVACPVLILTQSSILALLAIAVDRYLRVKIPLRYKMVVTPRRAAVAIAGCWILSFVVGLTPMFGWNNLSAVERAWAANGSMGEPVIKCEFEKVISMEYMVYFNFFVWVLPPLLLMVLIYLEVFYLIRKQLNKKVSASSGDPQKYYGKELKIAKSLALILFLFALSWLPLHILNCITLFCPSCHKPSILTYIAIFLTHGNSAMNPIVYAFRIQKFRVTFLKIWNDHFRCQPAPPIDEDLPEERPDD
To be noted: at 10 μM; [3H]36; CHO cells expressing hA1AR; ref Tosh et al.[9]; cited from earlier work.

Experiment [2] deals with human A2A adenosine receptor (hA2AAR) (Homo sapiens, UniProt P29274). Conditions: at 10 μM; [3H]37; HEK293 cells expressing hA2AAR; ref Tosh et al.[9]; cited from earlier work.
Another experiment concerns the target T2, human A3AR (Homo sapiens, UniProt P0DMS8).
T2 sequence (P0DMS8 1-318): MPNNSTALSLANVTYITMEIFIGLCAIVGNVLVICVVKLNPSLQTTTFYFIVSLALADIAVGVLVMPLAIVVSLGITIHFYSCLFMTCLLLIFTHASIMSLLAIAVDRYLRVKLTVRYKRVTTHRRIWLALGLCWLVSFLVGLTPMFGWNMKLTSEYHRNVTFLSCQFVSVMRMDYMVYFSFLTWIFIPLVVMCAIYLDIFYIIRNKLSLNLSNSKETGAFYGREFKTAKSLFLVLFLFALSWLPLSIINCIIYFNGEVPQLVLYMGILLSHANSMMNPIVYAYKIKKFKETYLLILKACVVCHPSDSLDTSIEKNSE
The experiment is described as follows: Inhibition of forskolin-stimulated cAMP production in A3AR-expressing CHO cells. The class given is cell-based. Conditions: inhibition of forskolin-stimulated cAMP at 10 μM, NECA as reference standard.

Experiment [3] addresses T3, human A3 adenosine receptor (hA3AR) (Homo sapiens, UniProt P0DMS8).
T3 sequence (P0DMS8 1-318): T2 sequence (P0DMS8 1-318)
The experiment is described as follows: Radioligand binding at human A3AR. Conditions: for Selectivity for hA3AR in comparison to A1 and A2AARs (in words): inhibition curves, Figure 1; for Affinity at the A3AR (in words): binding.

In experiment [4] the target is T1, human A1 adenosine receptor (hA1AR). Nature of the experiment: Radioligand binding at human A1AR. Conditions: read-out: % inhibition of radioligand binding, A1.

Sequence of human A2A adenosine receptor (hA2AAR) (P29274 whole entry): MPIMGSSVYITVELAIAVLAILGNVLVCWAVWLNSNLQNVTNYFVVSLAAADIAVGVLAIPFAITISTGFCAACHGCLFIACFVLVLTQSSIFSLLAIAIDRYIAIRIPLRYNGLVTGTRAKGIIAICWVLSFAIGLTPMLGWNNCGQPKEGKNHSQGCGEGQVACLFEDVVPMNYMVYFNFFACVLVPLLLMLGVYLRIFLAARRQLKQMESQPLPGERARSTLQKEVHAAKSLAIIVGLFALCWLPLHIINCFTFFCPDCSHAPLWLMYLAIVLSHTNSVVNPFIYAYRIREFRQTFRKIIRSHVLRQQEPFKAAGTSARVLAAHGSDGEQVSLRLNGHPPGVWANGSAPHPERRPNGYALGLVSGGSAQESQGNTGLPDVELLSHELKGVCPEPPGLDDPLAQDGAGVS

Consider `CNC(=O)[C@@]12C[C@@H]1[C@@H](n1cnc3c(NCc4cccc(Cl)c4)nc(C#CCCC(=O)NCCNC(=O)CCCCCNC(=O)CCCCC4SCC5NC(=O)NC54)nc31)[C@H](O)[C@@H]2O` (some centres unmarked) [Compound 3], for which the “% inhibition of radioligand binding, A1” value in experiment [1] is “(12±4%)”. Further, the “% inhibition of radioligand binding, A2A” value in experiment [2] is on record as “(47±11%)”.

In the case of `CNC(=O)[C@@]12C[C@@H]1[C@@H](n1cnc3c(NCc4cccc(Cl)c4)nc(C#CCCCCc4cn(C56CC7CC(CC(C7)C5)C6)nn4)nc31)[C@H](O)[C@@H]2O` [Compound 18, (1S,2R,3S,4R,5S)-6-(3-Chlorobenzylamino)-(2-(6-(1-(adamantyl)-1H-1,2,3-triazol-4-yl)hex-1-ynyl)-9H-purin-9-yl)-2′,3′-dihydroxybicyclo[3.1.0]hexane-1′-carboxylic acid N-methylamide], the “A3AR agonist efficacy (in words)” value at human A3AR was “partial agonist”. Besides, the “Selectivity for hA3AR in comparison to A1 and A2AARs (in words)” value in experiment [3] was “highly selective”.

Take `CNC(=O)[C@H]1O[C@@H](n2cnc3c(NCc4cccc(I)c4)ncnc32)[C@H](O)[C@@H]1O` [IB-MECA, N^6-(3-iodobenzyl)-5′-N-methylcarboxamidoadenosine, reference compound]: the “A3AR agonist efficacy (in words)” value on human A3AR is on record as “full agonists”.

As for `CNC(=O)[C@@]12C[C@@H]1[C@@H](n1cnc3c(NCc4cccc(Cl)c4)nc(C#CCCCCc4cn(CCCCCCNC(=O)c5ccc(-c6c7ccc(=N)c(S(=O)(=O)O)c-7oc7c(S(=O)(=O)O)c(N)ccc67)c(C(=O)O)c5)nn4)nc31)[C@H](O)[C@@H]2O` [Compound 23], the inhibition – broadly, the drop in the measured response relative to a control, in per cent – at 10 µM in experiment [4] is 0%.

With `CNC(=O)[C@@]12C[C@@H]1[C@@H](n1cnc3c(NCc4cccc(Cl)c4)nc(C#CCCC(=O)NCCNC(=O)CCCCC4SCC5NC(=O)NC54)nc31)[C@H](O)[C@@H]2O` (some centres unmarked) [Compound 2], the “% inhibition of radioligand binding, A1” value in experiment [1] is reported as “(1±1%)”. Further, the “% inhibition of radioligand binding, A2A” value in experiment [2] was “(51±2%)”.

For `CNC(=O)[C@@]12C[C@@H]1[C@@H](n1cnc3c(NCc4cccc(Cl)c4)nc(C#CCCCCc4cn(CCCCN)nn4)nc31)[C@H](O)[C@@H]2O` [Compound 16, (1S,2R,3S,4R,5S)-6-(3-Chlorobenzylamino)-(2-(6-(1-(4-aminobutyl)-1H-1,2,3-triazol-4-yl)hex-1-ynyl)-9H-purin-9-yl)-2′,3′-dihydroxybicyclo[3.1.0]hexane-1′-carboxylic acid N-methylamide], the “Affinity at the A3AR (in words)” value in experiment [3] is given as “only moderate affinity”.

`CCN1\C(=C/C=C/C=C/C2=[N+](CCCCCC(=O)NCCNC(=O)CCC#Cc3nc(NCc4cccc(Cl)c4)c4ncn([C@H]5[C@H](O)[C@H](O)[C@]6(C(=O)NC)C[C@H]56)c4n3)c3ccc(S(=O)(=O)[O-])cc3C2(C)C)C(C)(C)c2cc(S(=O)(=O)O)ccc21` [Compound 1]: the “% inhibition of radioligand binding, A1” value in experiment [1] is given as “(36±3%)”.

In the case of `CNC(=O)[C@@]12C[C@@H]1[C@@H](n1cnc3c(NCc4cccc(Cl)c4)nc(C#CCCCCc4cn(Cc5ccc(-n6sccc6=O)cc5)nn4)nc31)[C@H](O)[C@@H]2O` [Compound 19], the “Affinity at the A3AR (in words)” value in experiment [3] is “only moderate affinity”.

Take `CNC(=O)[C@@]12C[C@@H]1[C@@H](n1cnc3c(NCc4cccc(Cl)c4)nc(C#CCCCCc4cn(CCNC(C)=O)nn4)nc31)[C@H](O)[C@@H]2O` [Compound 15, (1S,2R,3S,4R,5S)-6-(3-Chlorobenzylamino)-(2-(6-(1-(4-acetamidoethyl)-1H-1,2,3-triazol-4-yl)hex-1-ynyl)-9H-purin-9-yl)-2′,3′-dihydroxybicyclo[3.1.0]hexane-1′-carboxylic acid N-methylamide]: the “A3AR agonist efficacy (in words)” value at human A3AR is on record as “highly efficacious agonists”. In addition, the “Fold more potent in A3AR binding than higher butyl homologue 17” value in experiment [3] (compared with 17) turned out to be 4 fold. Besides, the “Selectivity for hA3AR in comparison to A1 and A2AARs (in words)” value in experiment [3] was “highly selective”.
